Assays:
[1] = target: T1, lectin domain of LGR1_Llp1 (lectin-like protein 1) (Lacticaseibacillus rhamnosus, UniProt T1SH75); assay: pull-down with sugar-coated Sepharose 6B beads, SDS-PAGE; type: binding; conditions: sugar immobilised on beads; 25 mM MES, 25 mM NaCl, 1% polyvinylalcohol, 4 °C, 2 h; 100 μg/ml lectin domain
T1 construct: gene E6L36_12050; N-terminal L-type lectin domain (PF00139, ca. 250 residues) with 22 amino acids extension, N-His6 tag (pET28a, pCMPG10775), from E. coli BL21(DE3); full protein 680 residues; FITC-labelled for glycan array
T1 sequence (T1SH75 31-352 limits assumed): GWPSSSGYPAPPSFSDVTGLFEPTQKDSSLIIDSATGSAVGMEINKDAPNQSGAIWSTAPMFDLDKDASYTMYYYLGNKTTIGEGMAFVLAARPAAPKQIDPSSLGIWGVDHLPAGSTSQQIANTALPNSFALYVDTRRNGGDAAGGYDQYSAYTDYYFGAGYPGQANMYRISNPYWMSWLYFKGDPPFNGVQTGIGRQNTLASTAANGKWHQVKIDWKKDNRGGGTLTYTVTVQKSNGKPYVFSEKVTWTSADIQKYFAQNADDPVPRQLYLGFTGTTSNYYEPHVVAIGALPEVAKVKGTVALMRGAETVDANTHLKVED

[2] = target: T1, lectin domain of LGR1_Llp1 (lectin-like protein 1); assay: mammalian glycan array v5.[…] (CFG), FITC-labelled lectin domain; type: binding; conditions: glycan immobilised on NHS-activated glass slide through amino linker

Compound | pull-down with sugar-coated Sepharose 6B beads, SDS-PAGE [1] | mammalian glycan array v5.2 (CFG), FITC-labelled lectin domain [2]
OC[C@H]1OC(O)[C@@H](O)[C@@H](O)[C@@H]1O (stereo partly drawn) [D-mannose] | The purified lectin domain of Llp1 showed the highest binding to mannan and mannose | 
CC(=O)N[C@H]1[C@H](O[C@@H]2[C@H](O[C@]3(C(=O)O)C[C@H](O)[C@@H](NC(C)=O)[C@H]([C@H](O)[C@@H](CO)O[C@]4(C(=O)O)C[C@H](O)[C@@H](NC(C)=O)[C@H]([C@H](O)[C@H](O)CO)O4)O3)[C@@H](O)[C@H](O[C@H]3[C@H](O)[C@@H](O)[C@H](OCCN)O[C@@H]3CO)O[C@@H]2CO)O[C@H](CO)[C@H](O)[C@@H]1O[C@@H]1O[C@H](CO)[C@H](O)[C@H](O[C@]2(C(=O)O)C[C@H](O)[C@@H](NC(C)=O)[C@H]([C@H](O)[C@@H](CO)O[C@]3(C(=O)O)C[C@H](O)[C@@H](NC(C)=O)[C@H]([C@H](O)[C@H](O)CO)O3)O2)[C@H]1O [Neu5Acα2-8Neu5Acα2-3Galβ1-3GalNAcβ1-4(Neu5Acα2-8Neu5Acα2-3)Galβ1-4Glcβ-Sp0] |  | LGR1_Llp1 showed also a capacity to bind to the glycosphingolipid GQ1 receptor

From paper PMC5116675, “The lectin-like protein 1 in Lactobacillus rhamnosus GR-1 mediates tissue-specific adherence to vaginal epithelium and inhibits urogenital pathogens” (Scientific Reports, 2016)
